This is an account of results in PMC7180767, “Influence of Selected Antidepressants on the Ciliated Protozoan Spirostomum ambiguum: Toxicity, Bioaccumulation, and Biotransformation Products” (Molecules, 2020).

Molecules are shown by their SMILES. In brackets after ≈: the same amount, converted by molar mass. Where two headings read alike, the source gives them in different places.

For data set [1], the system named is Spirostomum ambiguum.
A further data set can be described thus: in vitro. Particulars: for LC50 at 1 d / LC50 at 2 d / LC50 at 7 d: Spirostomum ambiguum.
The subject of a further data set is Ceriodaphnia dubia. The note with it: cited from earlier work; for toxicity: endpoint not stated.
A further data set concerns Daphnia magna. Particulars: endpoint not stated; cited from earlier work.
Data set [2] relates to Spirostomum ambiguum. Description: microbe, parasite or virus in culture.
Data set [3] has as its system Spirostomum ambiguum. This is another data set of the same source.
The conditions of data set [4]: ref www.drugbank.ca, cited from earlier work; for Log P: octanol-water partition coefficient.
Data set [5] relates to Spirostomum ambiguum. This is another data set of the same source.
The subject of the next data set is Thamnocephalus platyurus. The note with it: cited from earlier work.
For another data set, the system named is Planorbid sp. The note with it: in vivo; cited from earlier work.
The subject of a further data set is Gammarus pulex. The note with it: cited from earlier work.
Another data set concerns Notonecta glauca. The note with it: cited from earlier work.
A further data set relates to M. galloprovincialis. Particulars: fluoxetine 75 ng/L nominal, cited from earlier work.
A further data set deals with Leishmania donovani. The note with it: cited from earlier work.
The subject of a further data set is Oncorhynchus mykiss. Particulars: cited from earlier work.
In data set [6] the test system is Hydropsyche sp. and Erpobdella octoculata. The note with it: effluent reach stream; cited from earlier work.
Setting [7] is: Spirostomum ambiguum, 7 d, 10 µg/L, pH 7.4.
[8] abbreviates: Spirostomum ambiguum, 7 d, 25 µg/L, pH 7.4.
Where [9] appears, read: Spirostomum ambiguum, 8 d, 10 µg/L, pH 7.4.
Where [10] appears, read: Spirostomum ambiguum, 8 d, 25 µg/L, pH 7.4.
[11] abbreviates: Spirostomum ambiguum, 12 d, 10 µg/L, pH 7.4.
The mark [12] stands for this setting: Spirostomum ambiguum, 12 d, 25 µg/L, pH 7.4.

As usually defined, the LC50 is the concentration that kills 50% of the test population. A low value points to greater toxicity. A word on the EC50: it is the concentration giving half of the maximal effect. Lower therefore signals higher potency in that assay. For `Fc1ccc([C@@H]2CCNC[C@H]2COc2ccc3c(c2)OCO3)cc1` [Paroxetine, paroxetine], the “Bioconcentration factor in S. ambiguum” value in the data set on Spirostomum ambiguum [1] (setting [7]) is listed as 905 L/kg; in the data set with Spirostomum ambiguum [1] (setting [8]), 794 L/kg; with Spirostomum ambiguum [1] (setting [9]), 806 L/kg; with Spirostomum ambiguum [1] (setting [10]) it was 934 L/kg; in the data set on Spirostomum ambiguum [1] (setting [11]), 3649 L/kg; with Spirostomum ambiguum [1] (setting [12]) it was 1234 L/kg. Moreover, the “Concentration in S. ambiguum” value in the data set with Spirostomum ambiguum [1] (setting [7]) is listed as 0.45 µg/g; in the data set with Spirostomum ambiguum [1] (setting [8]), 1.19 µg/g; in the data set on Spirostomum ambiguum [1] (setting [9]), 0.40 µg/g; with Spirostomum ambiguum [1] (setting [10]), 1.40 µg/g; in the data set with Spirostomum ambiguum [1] (setting [11]), 1.82 µg/g; in the data set with Spirostomum ambiguum [1] (setting [12]), 1.85 µg/g. Also, the “BCF values reached during the uptake phase” value with Spirostomum ambiguum [1] (Spirostomum ambiguum, pH 7.4) is no more than 1000 L/kg. For the same compound, the LC50 at 1 d in “in vitro” (pH 6) came to 4.53 ± 0.55 µg/mL (≈ 13.8 µM); in “in vitro” (pH 6.5), 1.4 ± 0.06 µg/mL (≈ 4.25 µM); in “in vitro” (pH 7.4), 1.17 ± 0.29 µg/mL (≈ 3.55 µM). Besides, the results for the LC50 at 2 d in the data set “in vitro” (pH 6) and in the data set “in vitro” (pH 7.4) were 2.55 ± 0.75 µg/mL (≈ 7.74 µM) and 1.15 ± 0.3 µg/mL (≈ 3.49 µM), respectively. Further, the LC50 at 7 d is 1.44 ± 0.21 µg/mL (≈ 4.37 µM) in the data set “in vitro” (pH 6), 0.81 ± 0.31 µg/mL (≈ 2.46 µM) in the data set “in vitro” (pH 6.5) and 0.77 ± 0.1 µg/mL (≈ 2.34 µM) in “in vitro” (pH 7.4). This compound showed an LC50 in “in vitro” (pH 6.5) of 1.27 ± 0.16 µg/mL (≈ 3.86 µM). Also, the toxicity in the data set with Ceriodaphnia dubia is listed as 0.58 mg/L; in the data set on Daphnia magna, 6.3 mg/L. Further, the EC50 worked out at 3.15 ± 1.68 µg/mL (≈ 9.56 µM) in the data set on Spirostomum ambiguum [2] (24 h, 1 d, pH = 6.0); 1.37 ± 0.03 µg/mL (≈ 4.16 µM) in the data set on Spirostomum ambiguum [2] (24 h, 1 d, pH = 6.5); 1.15 ± 0.29 µg/mL (≈ 3.49 µM) in the data set on Spirostomum ambiguum [2] (24 h, 1 d, pH = 7.4); 2.07 ± 0.73 µg/mL (≈ 6.28 µM) in the data set on Spirostomum ambiguum [2] (48 h, 2 d, pH = 6.0); 1.24 ± 0.17 µg/mL (≈ 3.76 µM) in the data set with Spirostomum ambiguum [2] (48 h, 2 d, pH = 6.5); 1.1 ± 0.29 µg/mL (≈ 3.34 µM) in the data set on Spirostomum ambiguum [2] (48 h, 2 d, pH = 7.4). The EC50 in the data set with Spirostomum ambiguum [2] ([…], 7 d, pH = 6.0) was 1.32 ± 0.13 µg/mL (≈ 4.01 µM); with Spirostomum ambiguum [2] ([…], 7 d, pH = 6.5), 0.76 ± 0.26 µg/mL (≈ 2.31 µM); with Spirostomum ambiguum [2] ([…], 7 d, pH = 7.4) it was 0.74 ± 0.06 µg/mL (≈ 2.25 µM).

The pKa is the pH at which an ionisable group is half protonated. Usually Log P stands for a log measure of how a compound divides between an organic and an aqueous phase. Turning to `CN1CCN2c3ccccc3Cc3ccccc3C2C1` (stereo not shown) [Mianserin, mianserin], the “time of highest concentration in S. ambiguum cells” value with Spirostomum ambiguum [1] is listed as “two days”. Besides, the “Concentration in S. ambiguum” value in the data set with Spirostomum ambiguum [1] (Spirostomum ambiguum, 1 d, 100 µg/L, pH 7.4) came out at 229.05 µg/g. In the data set on Spirostomum ambiguum [1] (Spirostomum ambiguum, pH 7.4), the “BCF values reached during the uptake phase” value was determined as 4939 L/kg. Also, in the data set with Spirostomum ambiguum [3], the “number of transformation products observed” value is “Five”. Moreover, the pKa in data set [4] (acid dissociation constant) was 6.92. For the same compound, the “Log P” value in data set [4] was 3.83.

The term EC20 denotes the concentration at which the effect reaches the 20% level. A higher EC20 goes with weaker potency. For `CNCCC(Oc1ccc(C(F)(F)F)cc1)c1ccccc1` (stereo not shown) [Fluoxetine, fluoxetine], the EC20 was determined as 2.03 ± 0.82 µg/mL (≈ 6.56 µM) in the data set with Spirostomum ambiguum [5] (1 d, pH = 6.0); 1.16 ± 0.14 µg/mL (≈ 3.75 µM) in the data set on Spirostomum ambiguum [5] (1 d, pH = 6.5); 1.21 ± 0.04 µg/mL (≈ 3.91 µM) with Spirostomum ambiguum [5] (1 d, pH = 7.4); 1.72 ± 0.51 µg/mL (≈ 5.56 µM) in the data set on Spirostomum ambiguum [5] (2 d, pH = 6.0); 0.98 ± 0.16 µg/mL (≈ 3.17 µM) in the data set with Spirostomum ambiguum [5] (2 d, pH = 6.5); 1.06 ± 0.11 µg/mL (≈ 3.43 µM) in the data set on Spirostomum ambiguum [5] (2 d, pH = 7.4). Also, the EC20 with Spirostomum ambiguum [5] (7 d, pH = 6.0) was 0.86 ± 0.15 µg/mL (≈ 2.78 µM); with Spirostomum ambiguum [5] (7 d, pH = 6.5), 0.58 ± 0.07 µg/mL (≈ 1.88 µM); with Spirostomum ambiguum [5] (7 d, pH = 7.4), 0.70 ± 0.13 µg/mL (≈ 2.26 µM). Besides, the “BCF values reached during the uptake phase” value in the data set on Spirostomum ambiguum [1] (S. ambiguum, uptake phase) was no more than 1000 L/kg. For the same compound, the “Log P” value in data set [4] is 4.09. In addition, the toxicity with Ceriodaphnia dubia was 0.23 mg/L; with Thamnocephalus platyurus (endpoint not stated), 0.85 mg/L; with Daphnia magna it was 0.82 mg/L. Also, the BCF was 3000 L/kg in the data set on Planorbid sp., 185,900 L/kg in the data set on Gammarus pulex and 1387 L/kg in the data set on Notonecta glauca. For the same compound, the concentration in mussel was 2.53 ng/g dry weight with M. galloprovincialis (after 3 days) and 9.31 ng/g in the data set with M. galloprovincialis (after 15 days).

Turning to `NCCC(Oc1ccc(C(F)(F)F)cc1)c1ccccc1` (stereo not shown) [norfluoxetine], the results for the concentration in mussel with M. galloprovincialis (after 3 days) and in the data set on M. galloprovincialis (after 15 days) were 3.06 ng/g dry weight and 11.65 ng/g, respectively.

As for `CN[C@H]1CC[C@@H](c2ccc(Cl)c(Cl)c2)c2ccccc21` [Sertraline, sertraline], the EC20 was found to be 0.46 ± 0.18 µg/mL (≈ 1.5 µM) in the data set on Spirostomum ambiguum [5] (Spirostomum ambiguum, 1 d, pH 6); 0.28 ± 0.04 µg/mL (≈ 0.914 µM) with Spirostomum ambiguum [5] (Spirostomum ambiguum, 1 d, pH 6.5); 0.29 ± 0.01 µg/mL (≈ 0.947 µM) in the data set with Spirostomum ambiguum [5] (Spirostomum ambiguum, 1 d, pH 7.4); 0.19 ± 0.03 µg/mL (≈ 0.62 µM) in the data set on Spirostomum ambiguum [5] (Spirostomum ambiguum, 2 d, pH 6); 0.22 ± 0.08 µg/mL (≈ 0.718 µM) in the data set on Spirostomum ambiguum [5] (Spirostomum ambiguum, 2 d, pH 6.5); 0.29 ± 0.01 µg/mL (≈ 0.947 µM) in the data set with Spirostomum ambiguum [5] (Spirostomum ambiguum, 2 d, pH 7.4). The EC20 was 0.20 ± 0.05 µg/mL (≈ 0.653 µM) in the data set with Spirostomum ambiguum [5] (Spirostomum ambiguum, 7 d, pH 6); 0.13 ± 0.03 µg/mL (≈ 0.425 µM) in the data set on Spirostomum ambiguum [5] (Spirostomum ambiguum, 7 d, pH 6.5); 0.15 ± 0.01 µg/mL (≈ 0.49 µM) in the data set on Spirostomum ambiguum [5] (Spirostomum ambiguum, 7 d, pH 7.4). The “time of highest concentration in cells” value in the data set with Spirostomum ambiguum [1] (Spirostomum ambiguum, 100 µg/L, pH 7.4) is listed as 24 h. The “BCF values reached during the uptake phase” value in the data set with Spirostomum ambiguum [1] (Spirostomum ambiguum, pH 7.4) is given as 34,092 L/kg. The “fall of intracellular concentration in the depuration phase, of the highest concentration” value with Spirostomum ambiguum [1] (Spirostomum ambiguum, pH 7.4) worked out at 40%. In addition, the “activity against Leishmania donovani” value in the data set with Leishmania donovani was “high activity”. The results for the LC50 at 1 d in “in vitro” (pH 6), in the data set “in vitro” (pH 6.5) and in the data set “in vitro” (pH 7.4) were 0.85 ± 0.09 µg/mL (≈ 2.78 µM), 0.47 ± 0.11 µg/mL (≈ 1.53 µM) and 0.41 ± 0.05 µg/mL (≈ 1.34 µM), respectively. In addition, the LC50 at 2 d is 0.49 ± 0.1 µg/mL (≈ 1.6 µM) in “in vitro” (pH 6), 0.33 ± 0.06 µg/mL (≈ 1.08 µM) in “in vitro” (pH 6.5) and 0.35 ± 0.01 µg/mL (≈ 1.14 µM) in “in vitro” (pH 7.4). Further, the LC50 at 7 d in the data set “in vitro” (pH 6) turned out to be 0.33 ± 0.08 µg/mL (≈ 1.08 µM); in “in vitro” (pH 6.5) it was 0.18 ± 0.04 µg/mL (≈ 0.588 µM); in the data set “in vitro” (pH 7.4) it was 0.27 ± 0.03 µg/mL (≈ 0.882 µM). In addition, in data set [4], the lipophilicity (Log P) is on record as 5.06. Further, in the data set on Ceriodaphnia dubia, the “48-h LC50” value was 0.12 µg/mL. Also, in the data set with Thamnocephalus platyurus, the “24-h LC50” value was 0.6 µg/mL. Moreover, the “96-h LC50” value in the data set on Oncorhynchus mykiss was 0.38 µg/mL. In [6], the “bioaccumulation factor (BCF)” value was “higher than 2000 L/kg”. For the same compound, in the data set on Planorbid sp., the BCF was 990 L/kg.
